Measurements as given in article PMC6740044 (ACS Omega, 2019).
Bridge positions count the residues as written; N and C are the ends. Peptide text beside a SMILES is read from it.

What was measured:
[1] = target: Herceptin (human IgG1) (human); assay: SPR
[2] = target: Herceptin (human IgG1) (human); assay: ITC
Herceptin (human IgG1) = Herceptin (human IgG1) (Homo sapiens, UniProt P01857); assay: Isothermal titration calorimetry; conditions: ITC, 25 °C, single-site binding model, measured three times
Sequence of Herceptin (human IgG1) (P01857 104-328): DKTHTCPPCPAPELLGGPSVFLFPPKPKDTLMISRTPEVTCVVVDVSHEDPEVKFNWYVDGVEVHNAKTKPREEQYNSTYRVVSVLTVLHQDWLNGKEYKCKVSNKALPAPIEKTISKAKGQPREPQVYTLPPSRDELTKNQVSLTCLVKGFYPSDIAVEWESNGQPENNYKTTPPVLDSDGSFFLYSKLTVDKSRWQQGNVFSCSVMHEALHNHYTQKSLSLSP

15-Lys8Phe (peptide)
Kd [1]: 40 nM

15-Lys8Tle (peptide)
Kd [2]: 200 nM

CC(=O)N[C@@H](CC(=O)O)C(=O)N[C@H]1CSSC[C@@H](C(=O)N[C@H](C(=O)N[C@@H](Cc2ccccc2)C(=O)N[C@@H](Cc2c[nH]cn2)C(N)=O)[C@@H](C)O)NC(=O)[C@H](Cc2c[nH]c3ccccc23)NC(=O)[C@H](C(C)C)NC(=O)[C@H](CC(C)C)NC(=O)[C@H](CCC(=O)O)NC(=O)CNC(=O)[C@H](CCCCN)NC(=O)[C@H](Cc2c[nH]cn2)NC(=O)[C@H](Cc2ccc(O)cc2)NC(=O)[C@H](C)NC1=O [15-IgBP] (Ac-DCAYHKGELVWCTFH-NH2; disulfide 2-12)
ΔG (Herceptin (human IgG1)): –9.1 ± 0.0 kcal/mol
ΔH (Herceptin (human IgG1)): –13 ± 0 kcal/mol
–TΔS (Herceptin (human IgG1)): 3.5 ± 0.1 kcal/mol
